{"source": "patent US9315815B2", "about": "“Method of high-throughput sorting of high expression cell and cells sorted therefrom” (Taipei Medical University, priority 2013, dated 2016)", "key": {"furin protease [1]": {"molecular_target": "T1, furin protease (Homo sapiens, UniProt P09958)", "T1 construct": "rich furin protease in Golgi can effectively cleave a furin cleavage site; endogenous in cells; host or cells: 293T/anti-EGFR (HEK-293 derived) cells", "T1 sequence (P09958 108-794)": "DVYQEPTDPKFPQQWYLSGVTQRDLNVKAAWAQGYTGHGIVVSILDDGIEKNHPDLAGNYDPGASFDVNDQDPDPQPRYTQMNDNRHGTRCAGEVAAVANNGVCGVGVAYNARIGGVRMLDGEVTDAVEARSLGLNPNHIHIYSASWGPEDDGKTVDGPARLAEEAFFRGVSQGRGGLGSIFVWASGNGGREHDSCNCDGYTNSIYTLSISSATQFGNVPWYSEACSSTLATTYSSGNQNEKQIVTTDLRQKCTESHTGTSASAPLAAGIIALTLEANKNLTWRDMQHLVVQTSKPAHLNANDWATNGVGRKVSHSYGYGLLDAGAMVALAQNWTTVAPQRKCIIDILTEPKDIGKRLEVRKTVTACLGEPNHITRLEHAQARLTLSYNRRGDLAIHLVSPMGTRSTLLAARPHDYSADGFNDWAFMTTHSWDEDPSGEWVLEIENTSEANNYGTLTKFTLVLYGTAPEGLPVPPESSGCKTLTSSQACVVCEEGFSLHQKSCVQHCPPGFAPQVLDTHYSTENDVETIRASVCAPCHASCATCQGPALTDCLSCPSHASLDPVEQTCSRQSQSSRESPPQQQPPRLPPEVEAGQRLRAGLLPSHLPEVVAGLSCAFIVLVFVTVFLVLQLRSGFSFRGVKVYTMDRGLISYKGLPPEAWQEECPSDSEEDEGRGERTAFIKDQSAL", "assay": "Secretion of anti-EGFR antibody by 293T/anti-EGFR cells with furin inhibitor", "format": "cell-based", "settings": "furin inhibitor added vs absent (FIG. 2A)", "from_the_text": "(§1) (A) To detect the concentration of anti-EGFR antibody of 293T/anti-EGFR cell culture, Dec-RVKR-CMK was used as furin inhibitor. The Y axis represents concentration of the secreted anti-EGFR antibody, while the X axis represents cell groups. […] (B) To detect anti-EGFR Ab-RAKR-mB7 expression of 293T/anti-EGFR on cell membrane, FACS technology combined with FITC conjugated anti-human IgG antibody was used. The filled region represents 293T cells as control group; the solid line represents 293T/anti-EGFR cell without furin inhibitor; the dashed line represents 293T/anti-EGFR cell with furin inhibitor.\nTake a humanized anti-EGFR antibody, for example; we transfected an anti-EGFR Ab-RAKR-mB7 gene into a human embryonic kidney cell with a Lentivirus vector to construct a 293T/anti-EGFR cell line. In the absence of a furin inhibitor (Dec-RVKR-CMK), said 293T/anti-EGFR can continuously secrete anti-EGFR antibody into extracellular matrix (see FIG. 2A)."}, "furin protease [2]": {"molecular_target": "T1, furin protease", "assay": "FACS detection of anti-EGFR Ab-RAKR-mB7 on 293T/anti-EGFR cell membrane with furin inhibitor", "format": "cell-based", "settings": "293T/anti-EGFR cells, furin inhibitor added, FITC anti-human IgG, FACS (FIG. 2B)", "from_the_text": "as §1\nThe gene was transfected into mammalian cells (human embryonic kidney cells, HEK-293). Under normal conditions, rich furin protease in Golgi can effectively cleave a furin cleavage site ([…]) between anti-EGFR antibody and mB7 to allow secretion of the anti-EGFR antibody into an extracellular matrix. When furin inhibitor (DEC-RVKR-CMK) was added, to inhibit the activity of the furin protease, the anti-EGFR Ab-RAKR-mB7 would not be cleaved by furin protease and would be stably anchored on the cell membrane surface. Then, FITC-conjugated anti-human antibody was used to label the anti-EGFR Ab-RAKR-mB7 on the cell membranes. By using FACS, the cells with high expression of anti-EGFR Ab-RAKR-mB7 on their cell membranes can be rapidly and high-throughput sorted. […]"}, "furin protease [3]": {"molecular_target": "T2, furin protease (Cricetulus griseus, UniProt A0A9J7CGZ7)", "T2 construct": "rich furin protease in Golgi can effectively cleave furin cleavage site; endogenous in cells; host or cells: LEC1/PCD-GB (CHO Lec1) cells", "T2 sequence (A0A9J7CGZ7 27-794)": "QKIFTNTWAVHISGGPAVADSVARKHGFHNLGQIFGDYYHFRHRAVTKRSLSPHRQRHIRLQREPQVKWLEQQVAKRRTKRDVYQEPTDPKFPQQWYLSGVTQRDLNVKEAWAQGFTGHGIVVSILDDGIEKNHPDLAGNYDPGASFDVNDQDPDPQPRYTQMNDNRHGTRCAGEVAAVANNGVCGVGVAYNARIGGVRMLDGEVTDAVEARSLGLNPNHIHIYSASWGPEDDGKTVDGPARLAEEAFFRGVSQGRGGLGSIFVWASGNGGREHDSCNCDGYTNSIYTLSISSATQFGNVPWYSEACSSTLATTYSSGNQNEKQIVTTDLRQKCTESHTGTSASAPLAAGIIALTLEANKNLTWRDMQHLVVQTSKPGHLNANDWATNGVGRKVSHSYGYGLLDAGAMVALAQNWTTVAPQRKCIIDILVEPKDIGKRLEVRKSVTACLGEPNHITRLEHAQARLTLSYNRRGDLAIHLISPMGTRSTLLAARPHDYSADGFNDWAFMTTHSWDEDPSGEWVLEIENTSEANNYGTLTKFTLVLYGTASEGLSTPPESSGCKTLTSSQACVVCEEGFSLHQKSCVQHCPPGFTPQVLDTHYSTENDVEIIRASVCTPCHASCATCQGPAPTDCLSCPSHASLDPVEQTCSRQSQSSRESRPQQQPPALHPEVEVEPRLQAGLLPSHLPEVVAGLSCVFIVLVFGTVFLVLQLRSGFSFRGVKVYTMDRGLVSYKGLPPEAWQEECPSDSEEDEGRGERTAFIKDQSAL", "assay": "FACS detection of PCD-GB-RAKR-mB7 on LEC1/PCD-GB cell membrane with furin inhibitor", "format": "cell-based, Chinese Hamster", "settings": "LEC1/PCD-GB cells, furin inhibitor added, anti-myc antibody, FACS (FIG. 6B)", "from_the_text": "(A) To detect the expression of PCD-GB recombinant protein in LEC1 and LEC1/PCD-GB cells, Western blot technique accompanied with mouse anti-myc antibody and goat anti-mouse IgG-HRP was used. (B) Furin inhibitor (Dec-RVKR-CMK) was used to inhibit the furin activity of LEC1 and LEC1/PCD-GB cells. Then, to detect the expression of PCD-GB-RAKR-mB7 on cell membrane, FACS technology accompanied with mouse anti-myc antibody and goat anti-mouse IgG-HRP was used. The filled region represents LEC1 cells as control group; solid line represents LEC1/PCD-GB cells without furin inhibitor; dashed line represents LEC1/PCD-GB cells with furin inhibitor. (C) The X axis represents the expression of PCD-GB-RAKR-mB7 on cell membrane (mean relative fluorescence intensity). The Y axis represents the production of PCD-GB stored in lysosomes. Each dot represents a single individual LEC1/PCD-GB cell.\nExample 2 exemplifies a perforin-granzyme fusion protein (PCD-GB) which is expressed in lysosome. […] The gene was transfected into mammalian cells (Chinese Hamster Ovary cells, LEC1). Under normal conditions, rich furin protease in Golgi can effectively cleave furin cleavage site ([…]) between PCD-GB and mB7 so that PCD-GB would be stored in lysosome. […]"}}, "data": [{"substance": "Dec-RVKR-CMK", "values": [{"measurement": "secretion of anti-EGFR antibody", "setting": "furin protease [1]", "result": "decreased secretion of anti-EGFR antibody"}, {"measurement": "expression of anti-EGFR Ab-RAKR-mB7 on cell membrane", "setting": "furin protease [2]", "result": "expression of anti-EGFR Ab-RAKR-mB7 was on the cell membrane"}, {"measurement": "PCD-GB-RAKR-mB7 detected on cell membrane", "setting": "furin protease [3]", "result": "few PCD-GB-RAKR-mB7 would be detected on the LEC1/PCD-GB cell membrane"}]}]}
